Experimental data: ChEMBL document CHEMBL4138123, “Design, synthesis and biological evaluation of novel pyrazolochalcones as potential modulators of PI3K/Akt/mTOR pathway and inducers of apoptosis in breast cancer cells” (Eur J Med Chem, 2017)

Key:
Type in all cases: functional
[1] = test system: MCF7; assay: Cytotoxicity against human MCF7 cells assessed as cell growth at 0.1 uM after 48 hrs by sulforhodamine B assay relative to control; conditions: MCF7, 48 h, read-out: Activity
[2] = test system: TK-10; assay: Cytotoxicity against human TK10 cells assessed as cell growth at 100 uM after 48 hrs by sulforhodamine B assay relative to control; conditions: TK-10, 48 h, read-out: Activity
[3] = test system: M14; assay: Cytotoxicity against human M14 cells assessed as cell growth at 0.1 uM after 48 hrs by sulforhodamine B assay relative to control; conditions: M14, 48 h, read-out: Activity
[4] = test system: SF-539; assay: Cytotoxicity against human SF539 cells assessed as cell growth at 0.01 uM after 48 hrs by sulforhodamine B assay relative to control; conditions: SF-539, 48 h, read-out: Activity
[5] = test system: ACHN; assay: Cytotoxicity against human ACHN cells assessed as growth inhibition after 48 hrs by sulforhodamine B assay
[6] = test system: SK-MEL-28; assay: Cytotoxicity against human SK-MEL-28 cells assessed as cell growth at 0.1 uM after 48 hrs by sulforhodamine B assay relative to control; conditions: SK-MEL-28, 48 h, read-out: Activity
[7] = test system: OVCAR-4; assay: Cytotoxicity against human OVCAR4 cells assessed as cell growth at 0.1 uM after 48 hrs by sulforhodamine B assay relative to control; conditions: OVCAR-4, 48 h, read-out: Activity
[8] = test system: OVCAR-3; assay: Cytotoxicity against human OVCAR3 cells assessed as cell growth at 100 uM after 48 hrs by sulforhodamine B assay relative to control; conditions: OVCAR-3, 48 h, read-out: Activity
[9] = test system: TK-10; assay: Cytotoxicity against human TK10 cells assessed as cell growth at 0.1 uM after 48 hrs by sulforhodamine B assay relative to control; conditions: TK-10, 48 h, read-out: Activity
[10] = test system: SK-MEL-5; assay: Cytotoxicity against human SK-MEL-5 cells assessed as cell growth at 0.1 uM after 48 hrs by sulforhodamine B assay relative to control; conditions: SK-MEL-5, 48 h, read-out: Activity
[11] = test system: OVCAR-5; assay: Cytotoxicity against human OVCAR5 cells assessed as growth inhibition after 48 hrs by sulforhodamine B assay; conditions: OVCAR-5, 48 h
[12] = test system: OVCAR-5; assay: Cytotoxicity against human OVCAR5 cells assessed as cell growth at 10 uM after 48 hrs by sulforhodamine B assay relative to control; conditions: OVCAR-5, 48 h, read-out: Activity
[13] = test system: T47D; assay: Cytotoxicity against human T47D cells assessed as cell growth at 100 uM after 48 hrs by sulforhodamine B assay relative to control; conditions: read-out: Activity
[14] = test system: SK-MEL-28; assay: Cytotoxicity against human SK-MEL-28 cells assessed as growth inhibition after 48 hrs by sulforhodamine B assay; conditions: SK-MEL-28, 48 h
[15] = test system: KM12; assay: Cytotoxicity against human KM12 cells assessed as cell growth at 0.1 uM after 48 hrs by sulforhodamine B assay relative to control; conditions: KM12, 48 h, read-out: Activity
[16] = test system: Hs-578T; assay: Cytotoxicity against human Hs 578T cells assessed as cell growth at 10 uM after 48 hrs by sulforhodamine B assay relative to control; conditions: read-out: Activity
[17] = test system: OVCAR-3; assay: Cytotoxicity against human OVCAR3 cells assessed as cell growth at 10 uM after 48 hrs by sulforhodamine B assay relative to control; conditions: OVCAR-3, 48 h, read-out: Activity
[18] = test system: Hs-578T; assay: Cytotoxicity against human Hs 578T cells assessed as cell growth at 0.01 uM after 48 hrs by sulforhodamine B assay relative to control; conditions: read-out: Activity
[19] = test system: OVCAR-8; assay: Cytotoxicity against human OVCAR8 cells assessed as cell growth at 10 uM after 48 hrs by sulforhodamine B assay relative to control; conditions: OVCAR-8, 48 h, read-out: Activity
[20] = test system: 786-0; assay: Cytotoxicity against human 786-0 cells assessed as cell growth at 100 uM after 48 hrs by sulforhodamine B assay relative to control; conditions: 786-0, 48 h, read-out: Activity
[21] = test system: MOLT-4; assay: Cytotoxicity against human MOLT4 cells assessed as cell growth at 10 uM after 48 hrs by sulforhodamine B assay relative to control; conditions: MOLT-4, 48 h, read-out: Activity
[22] = test system: IGROV-1; assay: Cytotoxicity against human IGROV1 cells assessed as growth inhibition after 48 hrs by sulforhodamine B assay; conditions: IGROV-1, 48 h
[23] = test system: HCC 2998; assay: Cytotoxicity against human HCC2998 cells assessed as cell growth at 10 uM after 48 hrs by sulforhodamine B assay relative to control; conditions: HCC 2998, 48 h, read-out: Activity
[24] = test system: 786-0; assay: Cytotoxicity against human 786-0 cells assessed as cell growth at 0.01 uM after 48 hrs by sulforhodamine B assay relative to control; conditions: 786-0, 48 h, read-out: Activity
[25] = test system: ACHN; assay: Cytotoxicity against human ACHN cells assessed as cell growth at 1 uM after 48 hrs by sulforhodamine B assay relative to control; conditions: read-out: Activity
[26] = test system: M14; assay: Cytotoxicity against human M14 cells assessed as cell growth at 0.01 uM after 48 hrs by sulforhodamine B assay relative to control; conditions: M14, 48 h, read-out: Activity
[27] = test system: COLO 205; assay: Cytotoxicity against human COLO205 cells assessed as cell growth at 100 uM after 48 hrs by sulforhodamine B assay relative to control; conditions: COLO 205, 48 h, read-out: Activity
[28] = test system: OVCAR-4; assay: Cytotoxicity against human OVCAR4 cells assessed as cell growth at 1 uM after 48 hrs by sulforhodamine B assay relative to control; conditions: OVCAR-4, 48 h, read-out: Activity
[29] = test system: SR; assay: Cytotoxicity against human SR cells assessed as cell growth at 10 uM after 48 hrs by sulforhodamine B assay relative to control; conditions: read-out: Activity
[30] = test system: HT-29; assay: Cytotoxicity against human HT-29 cells assessed as cell growth at 0.1 uM after 48 hrs by sulforhodamine B assay relative to control; conditions: HT-29, 48 h, read-out: Activity
[31] = test system: COLO 205; assay: Cytotoxicity against human COLO205 cells assessed as cell growth at 0.01 uM after 48 hrs by sulforhodamine B assay relative to control; conditions: COLO 205, 48 h, read-out: Activity
[32] = test system: PC-3; assay: Cytotoxicity against human PC3 cells assessed as cell growth at 0.01 uM after 48 hrs by sulforhodamine B assay relative to control; conditions: PC-3, 48 h, read-out: Activity
[33] = test system: A549; assay: Cytotoxicity against human A549/ATCC cells assessed as cell growth at 1 uM after 48 hrs by sulforhodamine B assay relative to control; conditions: A549, 48 h, read-out: Activity
[34] = test system: MOLT-4; assay: Cytotoxicity against human MOLT4 cells assessed as cell growth at 0.01 uM after 48 hrs by sulforhodamine B assay relative to control; conditions: MOLT-4, 48 h, read-out: Activity
[35] = test system: UACC-62; assay: Cytotoxicity against human UACC62 cells assessed as cell growth at 0.01 uM after 48 hrs by sulforhodamine B assay relative to control; conditions: UACC-62, 48 h, read-out: Activity
[36] = test system: DU-145; assay: Cytotoxicity against human DU145 cells assessed as growth inhibition after 48 hrs by sulforhodamine B assay; conditions: DU-145, 48 h
[37] = test system: SK-MEL-5; assay: Cytotoxicity against human SK-MEL-5 cells assessed as cell growth at 0.01 uM after 48 hrs by sulforhodamine B assay relative to control; conditions: SK-MEL-5, 48 h, read-out: Activity

`COc1ccc(C(=O)/C=C/c2cc(-c3cc(OC)c(OC)c(OC)c3)n[nH]2)cc1OC` was tested, and the growth at 0.1 µM [1] was 91%, the growth at 100 µM [2] was -99% and the growth at 0.1 µM [3] was 98%. It also gave a growth at 0.01 µM [4] of 97%, an LC50 [5] of 5.75 µM and a TGI [5] of 3.09 µM. The growth at 0.1 µM [6] was 104%, the growth at 0.1 µM [7] was 96% and the growth at 100 µM [8] was -84%. It also gave a growth at 0.1 µM [9] of 90%, a growth at 0.1 µM [10] of 96% and an LC50 [11] of 5.75 µM. It also gave a TGI [11] of 3.03 µM, a growth at 10 µM [12] of -93% and a growth at 100 µM [13] of -46%. The LC50 [14] was 6.25 µM, the TGI [14] was 3.34 µM and the growth at 0.1 µM [15] was 92%. For the same compound, the growth at 10 µM [16] was -9%, the growth at 10 µM [17] was -91% and the growth at 0.01 µM [18] was 98%. For the same compound, the growth at 10 µM [19] was -89%, the growth at 100 µM [20] was -84% and the growth at 10 µM [21] was -30%. It also gave an LC50 [22] of 6.48 µM, a TGI [22] of 3.41 µM and a growth at 10 µM [23] of -85%. For the same compound, the growth at 0.01 µM [24] was 96%, the growth at 1 µM [25] was 91% and the growth at 0.01 µM [26] was 97%. The growth at 100 µM [27] was -75%, the growth at 1 µM [28] was 70% and the growth at 10 µM [29] was 2%. The growth at 0.1 µM [30] was 105%, the growth at 0.01 µM [31] was 107% and the growth at 0.01 µM [32] was 96%. It also gave a growth at 1 µM [33] of 84%, a growth at 0.01 µM [34] of 102% and a growth at 0.01 µM [35] of 98%. It also gave a TGI [36] of 1840 nM, a CC50 ([36]; read-out: LC50 (the source's name)) of 4.76 µM and a growth at 0.01 µM [37] of 97%.
